Our source for the T/C values is PubChem BioAssay AID248 (DTP/NCI, 2004).

The assay has as its system L1210 leukemia ip in BDF1 mice, survival T/C. In words: NCI In Vivo Anticancer Drug Screen. Data for tumor model L1210 Leukemia (intraperitoneal) in B6D2F1 (BDF1) mice. As to conditions: endpoint: mean survival time, higher = longer survival. The method, boiled down:
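Read-out is survival time, reported as the treated-group measurement over the vehicle-control measurement.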

Where [1] appears, read: dose: 50.0 mg/kg/injection, schedule: Q01DX009 (ip), vehicle: saline.
Setting [2] is: dose: 100.0 mg/kg/injection, schedule: Q04DX003 (ip), vehicle: Klucel (hydroxypropylcellulose) (HPC).
The mark [3] stands for this setting: dose: 200.0 mg/kg/injection, schedule: Q04DX003 (ip), vehicle: Klucel (hydroxypropylcellulose) (HPC).
[4] abbreviates: dose: 400.0 mg/kg/injection, schedule: Q04DX003 (ip), vehicle: Klucel (hydroxypropylcellulose) (HPC).
[5] abbreviates: dose: 100.0 mg/kg/injection, schedule: Q01DX009 (ip), vehicle: Klucel (hydroxypropylcellulose) (HPC).
Where [6] appears, read: dose: 200.0 mg/kg/injection, schedule: Q01DX009 (ip), vehicle: Klucel (hydroxypropylcellulose) (HPC).
[7] abbreviates: dose: 400.0 mg/kg/injection, schedule: Q01DX009 (ip), vehicle: Klucel (hydroxypropylcellulose) (HPC).
Where [8] appears, read: dose: 100.0 mg/kg/injection, schedule: Q01DX001 (ip), vehicle: carboxymethylcellulose (CMC).
Where [9] appears, read: dose: 200.0 mg/kg/injection, schedule: Q01DX001 (ip), vehicle: carboxymethylcellulose (CMC).
[10] abbreviates: dose: 400.0 mg/kg/injection, schedule: Q01DX001 (ip), vehicle: carboxymethylcellulose (CMC).

“And” between values parts separate entries of the source, which are not always exact repeats. Identical values can stand only once. Inconclusive results and toxic doses are left out.

Regarding `CC1(C)CN1P(=O)(N1CC1(C)C)N1CC1(C)C` (configuration not stated), the T/C runs as follows: (dose: 1.25 mg/kg/injection, schedule: Q01DX009 (ip), vehicle: saline) 105 % of control; (dose: 2.5 mg/kg/injection, schedule: Q01DX009 (ip), vehicle: saline) 111 % of control; (dose: 5.0 mg/kg/injection, schedule: Q01DX009 (ip), vehicle: saline) 107 % of control; (dose: 6.0 mg/kg/injection, schedule: Q01DX009 (ip), vehicle: saline) 182 % of control; (dose: 12.0 mg/kg/injection, schedule: Q01DX009 (ip), vehicle: saline) 151 % of control; (dose: 20.0 mg/kg/injection, schedule: Q01DX009 (ip), vehicle: saline) 194 % of control. In addition, the T/C reads like this: (dose: 22.0 mg/kg/injection, schedule: Q01DX009 (ip), vehicle: saline) 222 % of control; (dose: 33.0 mg/kg/injection, schedule: Q01DX009 (ip), vehicle: saline) 213 % of control; (dose: 40.0 mg/kg/injection, schedule: Q01DX009 (ip), vehicle: saline) 269 % of control; under setting [1], 204 % of control; (dose: 75.0 mg/kg/injection, schedule: Q01DX009 (ip), vehicle: saline) 95 % of control; (dose: 112.5 mg/kg/injection, schedule: Q01DX001 (ip), vehicle: saline) 184 % of control. The T/C (dose: 150.0 mg/kg/injection, schedule: Q01DX001 (ip), vehicle: saline) was 225 % of control and 86 % of control.
With `Nc1nc(N)c(N=O)c(Nc2ccc(O)cc2)n1`, the T/C is 103 % of control under setting [2]; 91 % of control (dose: 200.0 mg/kg/injection, schedule: Q01DX Z (ip), vehicle: methylcellulose (MC)); 97 % of control under setting [3]; 100 % of control under setting [4].
With `CCCCCCCC(CCCCCC)(OO)C(=O)OC` (configuration not stated), the T/C reads like this: (dose: 25.0 mg/kg/injection, schedule: Q04DX002 (ip), vehicle: saline with Tween-80) 100 % of control; (dose: 50.0 mg/kg/injection, schedule: Q04DX002 (ip), vehicle: saline with Tween-80) 95 % of control; (dose: 100.0 mg/kg/injection, schedule: Q04DX002 (ip), vehicle: saline with Tween-80) 91 % of control.
For `Cc1ccc(Cl)cc1NC(=O)c1ccccc1`, the T/C reads like this: under setting [5], 89 % of control; under setting [2], 95 % of control; under setting [6], 100 % of control; under setting [3], 106 % of control; under setting [7], 94 % of control; under setting [4], 95 % of control.
For `O=C(O)c1cccc2c1C(=O)c1cc(Cl)ccc1-2`, the T/C (dose: 75.0 mg/kg/injection, schedule: Q01DX001 (ip), vehicle: carboxymethylcellulose (CMC)) is 96 % of control and the T/C (dose: 150.0 mg/kg/injection, schedule: Q01DX001 (ip), vehicle: carboxymethylcellulose (CMC)) was 102 % of control.
As to `CCOC(=O)C1=NN(c2ccccc2)C(=O)C1`, the T/C runs as follows: under setting [5], 105 % of control; under setting [2], 98 % of control; (dose: 100.0 mg/kg/injection, schedule: Q04DX003 (ip), vehicle: saline with Tween-80) 94 % of control; under setting [6], 103 % of control; under setting [3], 96 % of control; (dose: 200.0 mg/kg/injection, schedule: Q04DX003 (ip), vehicle: saline with Tween-80) 100 % of control. Besides, the T/C reads like this: under setting [7], 92 % of control; under setting [4], 102 % of control; (dose: 400.0 mg/kg/injection, schedule: Q04DX003 (ip), vehicle: saline with Tween-80) 93 % of control.
With `Cn1c(N)c(N=Nc2ccc(S(=O)(=O)Nc3ncccn3)cc2)c(=O)n(C)c1=O`, the T/C by setting is: under setting [8], 98 % of control; under setting [9], 98 % of control; under setting [10], 95 % of control.
In the case of `CCOC(=O)C1=C(C)NC(C)=C(C(=O)OCC)C1C`, the T/C was 111 % of control under setting [8], 116 % of control under setting [9] and 106 % of control under setting [10].
For the compound `CN(C)c1ccc(/C=C\C=N\NC(=O)CCCC(=O)N/N=C/C=C/c2ccc(N(C)C)cc2)cc1`, the T/C is 96 % of control (dose: 50.0 mg/kg/injection, schedule: Q01DX001 (ip), vehicle: saline); 96 % of control (dose: 100.0 mg/kg/injection, schedule: Q01DX001 (ip), vehicle: saline); 96 % of control (dose: 200.0 mg/kg/injection, schedule: Q01DX001 (ip), vehicle: saline); 90 % of control (dose: 400.0 mg/kg/injection, schedule: Q01DX001 (ip), vehicle: saline).
Regarding `CCOC(=O)c1nc2nc(Cl)c(Cl)nc2[nH]1`, the T/C was 102 % of control (dose: 12.5 mg/kg/injection, schedule: Q04DX003 (ip), vehicle: saline); 107 % of control (dose: 25.0 mg/kg/injection, schedule: Q01DX009 (ip), vehicle: saline); 100 % of control (dose: 25.0 mg/kg/injection, schedule: Q04DX003 (ip), vehicle: saline); 105 % of control under setting [1]; 105 % of control (dose: 50.0 mg/kg/injection, schedule: Q04DX003 (ip), vehicle: saline); 96 % of control (dose: 100.0 mg/kg/injection, schedule: Q01DX009 (ip), vehicle: saline). Besides, the T/C runs as follows: (dose: 100.0 mg/kg/injection, schedule: Q04DX003 (ip), vehicle: saline) 99 % of control; (dose: 200.0 mg/kg/injection, schedule: Q04DX003 (ip), vehicle: saline) 98 % of control; (dose: 400.0 mg/kg/injection, schedule: Q04DX003 (ip), vehicle: saline) 96 % of control.
Consider `CNc1ccccc1[N+](=O)[O-]`, for which the T/C runs as follows: under setting [5], 100 % of control; (dose: 100.0 mg/kg/injection, schedule: Q01DX009 (ip), vehicle: other) 104 % of control; under setting [2], 96 % of control; (dose: 100.0 mg/kg/injection, schedule: Q04DX003 (ip), vehicle: other) 107 % of control; under setting [6], 98 % of control; (dose: 200.0 mg/kg/injection, schedule: Q01DX009 (ip), vehicle: other) 95 % of control. For the same compound, the T/C was 95 % of control under setting [3]; 97 % of control (dose: 200.0 mg/kg/injection, schedule: Q04DX003 (ip), vehicle: other); 104 % of control under setting [7]; 95 % of control (dose: 400.0 mg/kg/injection, schedule: Q01DX009 (ip), vehicle: other); 98 % of control under setting [4]; 113 % of control (dose: 400.0 mg/kg/injection, schedule: Q04DX003 (ip), vehicle: other).
As to `O=C1C2(c3ccccc3)CC(Cc3ccccc3)C1(c1ccccc1)C(c1ccccc1)=C2c1ccccc1` (configuration not stated), the T/C is 100 % of control (dose: 50.0 mg/kg/injection, schedule: Q01DX001 (ip), vehicle: carboxymethylcellulose (CMC)); 97 % of control under setting [8]; 111 % of control under setting [9]; 95 % of control under setting [10].
